Results taken from patent publication US5153352A, “Process for preparation of intermediates of carbocyclic nucleoside analogs” (priority 1990, dated 1992).
Converted amounts (≈) assume the structure as drawn. Like-named read-outs stand apart in the source and are kept apart here.

Assays:
Vero cells [1] = conditions: monkey
[2] = drug cytotoxicity in Vero cells (CPE-inhibition assay); conditions: monkey, vero cells
Vero cells [3] = test: as above; conditions: Vero
[4] = test system: duck hepatitis B virus (DHBV); test: efficacy against hepatitis B virus in vivo in ducklings; set-up: species or system Peking duckling infected with duck hepatitis B virus
Experimental: The test method is an adaptation of the method of Smee, et al., Antimicrob. Agents Chemotherap. 27 277 (1985). The serum level of duck hepatitis B virus (DHBV) DNA was monitored in 6 infected Peking ducklings from age 6 days to age 27 days. Four ducklings were treated with 70 mg/kg/day IP, b.i.d. of the test compound as a 3 mg/ml solution in 0.9% aqueous NaCl on days 10-17. Two control ducklings were treated with 23 ml/kg/day IP, b.i.d. of 0.9% aqueous NaCl on days 10-17. The level of DHBV DNA in the duckling serum was measured daily.

HSV-1(123) = test: plaque reduction, HSV-1(123) in Vero cells; assay type: cell-based, Herpes simplex virus type 1; conditions: Human alphaherpesvirus 1, plaque reduction 50%, read-out: MIC50
Experimental: After the adsorption period, the infected cell monolayers were treated in duplicate with serial dilutions of the test compound. Duplicate cell controls containing medium alone and virus controls containing medium and virus were run simultaneously with the test compound. […] Plaques visible to the unaided eye were counted and the mean number of plaques in the duplicate wells for each compound concentration tested and for the untreated, virus infected controls were determined.

Herpesvirus 1 = test: in vivo activity against intraperitoneal Herpesvirus 1 challenge in mice; set-up: species or system mouse infected with Herpesvirus 1 (strain 123); conditions: for No. Dead/No. Infected: 7 doses; for GMTD (geometric mean time to death): monitored daily for 21 days
Experimental: Four-week-old female outbred Swiss mice (CD 1, VAF+, Charles River Labs) were housed 5 per Microisolator® cage. Feed and water were supplied ad libitum. Fifteen mice were randomly assigned to each of the following treatment groups:
2. diluent (0.4% CMC/PBS controls)
3. 100 mg/kg test compound
4. 32 mg/kg test compound
5. 10 mg/kg test compound
6. 3.2 mg/kg test compound
Test compounds were diluted in 0.4% carboxymethylcellulose (CMC) prepared in phosphate buffered saline (PBS) at concentrations consistent with dosing at 0.1 ml per 10 q of body weight. Compounds were administered subcutaneously once daily for a total of 7 doses. Five mice in each treatment group served as uninfected toxicity controls. The remaining ten mice in each group were challenged intraperitoneally with an LD90 dose of the twelfth in vivo passage of Herpesvirus 1 (strain 123). Virus challenge was administered two hours after the first dose of compound was given. Mortality was monitored daily for 21 days. The mortality rates, average day of death, geometric mean time to death and virus rating were calculated for each treatment group.

Nc1nc2c(ncn2C2CC(CO)C2CO)c(=O)[nH]1 (stereo not drawn) [Example 1I, 9-(2',3'-Bis(hydroxymethyl)cyclobutyl)guanine]
MTC (minimum drug concentration causing any cytotoxicity) (Vero cells [1]): 320 µg/mL | MCC [2]: 100 µg/mL | MCC ([2]; MTC (minimum drug concentration causing any cytotoxicity), Vero, HSV-2 (MS) experiment): 320 µg/mL | MTC (minimum drug concentration causing any cytotoxicity) (Vero cells [3]; HSV-2 (BW9787) TK- experiment): 100 µg/mL | MTC (minimum drug concentration causing any cytotoxicity) (Vero cells [3]; HSV-2 (MS) experiment): 320 µg/mL | Serum DHBV DNA ([4]; duck 1, age 6 days, before treatment): 187 ng/mL | Serum DHBV DNA ([4]; duck 1, age 7 days, before treatment): 156 ng/mL | Serum DHBV DNA ([4]; duck 1, age 8 days, before treatment): 168 ng/mL | Serum DHBV DNA ([4]; duck 1, age 9 days, before treatment): 233 ng/mL | Serum DHBV DNA ([4]; duck 1, age 10 days, 70 mg/kg/day IP days 10-17): 213 ng/mL | Serum DHBV DNA ([4]; duck 1, age 11 days, 70 mg/kg/day IP days 10-17): 155 ng/mL | Serum DHBV DNA ([4]; duck 1, age 12 days, 70 mg/kg/day IP days 10-17): 64 ng/mL | Serum DHBV DNA ([4]; duck 1, age 13 days, 70 mg/kg/day IP days 10-17): 11 ng/mL | Serum DHBV DNA ([4]; duck 1, age 14 days, 70 mg/kg/day IP days 10-17): 6 ng/mL | Serum DHBV DNA ([4]; duck 1, age 15 days, 70 mg/kg/day IP days 10-17): < 1 ng/mL | Serum DHBV DNA ([4]; duck 1, age 16 days, 70 mg/kg/day IP days 10-17): < 1 ng/mL | Serum DHBV DNA ([4]; duck 1, age 17 days, 70 mg/kg/day IP days 10-17): < 1 ng/mL | Serum DHBV DNA ([4]; duck 1, age 18 days, 70 mg/kg/day IP days 10-17): < 1 ng/mL | Serum DHBV DNA ([4]; duck 1, age 19 days, 70 mg/kg/day IP days 10-17): < 1 ng/mL | Serum DHBV DNA ([4]; duck 1, age 20 days, 70 mg/kg/day IP days 10-17): < 1 ng/mL | Serum DHBV DNA ([4]; duck 1, age 21 days, 70 mg/kg/day IP days 10-17): < 1 ng/mL | Serum DHBV DNA ([4]; duck 1, age 22 days, 70 mg/kg/day IP days 10-17): 3 ng/mL | Serum DHBV DNA ([4]; duck 1, age 23 days, 70 mg/kg/day IP days 10-17): 12 ng/mL | Serum DHBV DNA ([4]; duck 1, age 24 days, 70 mg/kg/day IP days 10-17): 16 ng/mL | Serum DHBV DNA ([4]; duck 1, age 25 days, 70 mg/kg/day IP days 10-17): 31 ng/mL | Serum DHBV DNA ([4]; duck 1, age 26 days, 70 mg/kg/day IP days 10-17): 71 ng/mL | Serum DHBV DNA ([4]; duck 1, age 27 days, 70 mg/kg/day IP days 10-17): 134 ng/mL | Serum DHBV DNA ([4]; duck 2, age 6 days, before treatment): 143 ng/mL | Serum DHBV DNA ([4]; duck 2, age 7 days, before treatment): 111 ng/mL | Serum DHBV DNA ([4]; duck 2, age 8 days, before treatment): 121 ng/mL | Serum DHBV DNA ([4]; duck 2, age 9 days, before treatment): 102 ng/mL | Serum DHBV DNA ([4]; duck 2, age 10 days, 70 mg/kg/day IP days 10-17): 120 ng/mL | Serum DHBV DNA ([4]; duck 2, age 11 days, 70 mg/kg/day IP days 10-17): 61 ng/mL | Serum DHBV DNA ([4]; duck 2, age 12 days, 70 mg/kg/day IP days 10-17): 27 ng/mL | Serum DHBV DNA ([4]; duck 2, age 13 days, 70 mg/kg/day IP days 10-17): 2 ng/mL | Serum DHBV DNA ([4]; duck 2, age 14 days, 70 mg/kg/day IP days 10-17): 1 ng/mL | Serum DHBV DNA ([4]; duck 2, age 15 days, 70 mg/kg/day IP days 10-17): < 1 ng/mL | Serum DHBV DNA ([4]; duck 2, age 16 days, 70 mg/kg/day IP days 10-17): < 1 ng/mL | Serum DHBV DNA ([4]; duck 2, age 17 days, 70 mg/kg/day IP days 10-17): < 1 ng/mL | Serum DHBV DNA ([4]; duck 2, age 18 days, 70 mg/kg/day IP days 10-17): < 1 ng/mL | Serum DHBV DNA ([4]; duck 2, age 19 days, 70 mg/kg/day IP days 10-17): < 1 ng/mL | Serum DHBV DNA ([4]; duck 2, age 20 days, 70 mg/kg/day IP days 10-17): < 1 ng/mL | Serum DHBV DNA ([4]; duck 2, age 21 days, 70 mg/kg/day IP days 10-17): < 1 ng/mL | Serum DHBV DNA ([4]; duck 2, age 22 days, 70 mg/kg/day IP days 10-17): < 1 ng/mL | Serum DHBV DNA ([4]; duck 2, age 23 days, 70 mg/kg/day IP days 10-17): < 1 ng/mL | Serum DHBV DNA ([4]; duck 2, age 24 days, 70 mg/kg/day IP days 10-17): < 1 ng/mL | Serum DHBV DNA ([4]; duck 2, age 25 days, 70 mg/kg/day IP days 10-17): 2 ng/mL | Serum DHBV DNA ([4]; duck 2, age 26 days, 70 mg/kg/day IP days 10-17): 2 ng/mL | Serum DHBV DNA ([4]; duck 2, age 27 days, 70 mg/kg/day IP days 10-17): 7 ng/mL | Serum DHBV DNA ([4]; duck 3, age 6 days, before treatment): 520 ng/mL | Serum DHBV DNA ([4]; duck 3, age 7 days, before treatment): 311 ng/mL | Serum DHBV DNA ([4]; duck 3, age 8 days, before treatment): 277 ng/mL | Serum DHBV DNA ([4]; duck 3, age 9 days, before treatment): 412 ng/mL | Serum DHBV DNA ([4]; duck 3, age 10 days, 70 mg/kg/day IP days 10-17): 377 ng/mL | Serum DHBV DNA ([4]; duck 3, age 11 days, 70 mg/kg/day IP days 10-17): 130 ng/mL | Serum DHBV DNA ([4]; duck 3, age 12 days, 70 mg/kg/day IP days 10-17): 77 ng/mL | Serum DHBV DNA ([4]; duck 3, age 13 days, 70 mg/kg/day IP days 10-17): 16 ng/mL | Serum DHBV DNA ([4]; duck 3, age 14 days, 70 mg/kg/day IP days 10-17): 2 ng/mL | Serum DHBV DNA ([4]; duck 3, age 15 days, 70 mg/kg/day IP days 10-17): 2 ng/mL | Serum DHBV DNA ([4]; duck 3, age 16 days, 70 mg/kg/day IP days 10-17): < 1 ng/mL | Serum DHBV DNA ([4]; duck 3, age 17 days, 70 mg/kg/day IP days 10-17): < 1 ng/mL | Serum DHBV DNA ([4]; duck 3, age 18 days, 70 mg/kg/day IP days 10-17): < 1 ng/mL | Serum DHBV DNA ([4]; duck 4, age 6 days, before treatment): 288 ng/mL | Serum DHBV DNA ([4]; duck 4, age 7 days, before treatment): 215 ng/mL | Serum DHBV DNA ([4]; duck 4, age 8 days, before treatment): 256 ng/mL | Serum DHBV DNA ([4]; duck 4, age 9 days, before treatment): 311 ng/mL | Serum DHBV DNA ([4]; duck 4, age 10 days, 70 mg/kg/day IP days 10-17): 333 ng/mL | Serum DHBV DNA ([4]; duck 4, age 11 days, 70 mg/kg/day IP days 10-17): 132 ng/mL | Serum DHBV DNA ([4]; duck 4, age 12 days, 70 mg/kg/day IP days 10-17): 21 ng/mL | Serum DHBV DNA ([4]; duck 4, age 13 days, 70 mg/kg/day IP days 10-17): 2 ng/mL | Serum DHBV DNA ([4]; duck 4, age 14 days, 70 mg/kg/day IP days 10-17): 1 ng/mL | Serum DHBV DNA ([4]; duck 4, age 15 days, 70 mg/kg/day IP days 10-17): 1 ng/mL | Serum DHBV DNA ([4]; duck 4, age 16 days, 70 mg/kg/day IP days 10-17): 1 ng/mL | Serum DHBV DNA ([4]; duck 4, age 17 days, 70 mg/kg/day IP days 10-17): < 1 ng/mL | Serum DHBV DNA ([4]; duck 4, age 18 days, 70 mg/kg/day IP days 10-17): < 1 ng/mL | Serum DHBV DNA ([4]; duck 4, age 19 days, 70 mg/kg/day IP days 10-17): < 1 ng/mL | Serum DHBV DNA ([4]; duck 4, age 20 days, 70 mg/kg/day IP days 10-17): < 1 ng/mL | Serum DHBV DNA ([4]; duck 4, age 21 days, 70 mg/kg/day IP days 10-17): < 1 ng/mL | Serum DHBV DNA ([4]; duck 4, age 22 days, 70 mg/kg/day IP days 10-17): < 1 ng/mL | Serum DHBV DNA ([4]; duck 4, age 23 days, 70 mg/kg/day IP days 10-17): < 1 ng/mL | Serum DHBV DNA ([4]; duck 4, age 24 days, 70 mg/kg/day IP days 10-17): < 1 ng/mL | Serum DHBV DNA ([4]; duck 4, age 25 days, 70 mg/kg/day IP days 10-17): < 1 ng/mL | death of treated ducks ([4]; ducks 3 and 4, 70 mg/kg/day IP b.i.d. days 10-17): ducks 3 and 4 died on day 18 and day 26, respectively | EC50 (HSV-1(123)): 1 µg/mL (≈ 3.77 µM) | VR (virus rating, GMTD of experimental/GMTD of diluent-treated control) (Herpesvirus 1; 3.2 mg/kg s.c.): 1.3 | No. Dead/No. Infected (Herpesvirus 1; 3.2 mg/kg s.c. once daily): 8/10 | GMTD (geometric mean time to death) (Herpesvirus 1; 3.2 mg/kg s.c.): 10.8 | VR (virus rating, GMTD of experimental/GMTD of diluent-treated control) (Herpesvirus 1; 10 mg/kg s.c.): 1.6 | No. Dead/No. Infected (Herpesvirus 1; 10 mg/kg s.c. once daily): 5/10 | GMTD (geometric mean time to death) (Herpesvirus 1; 10 mg/kg s.c.): 13.0 | VR (virus rating, GMTD of experimental/GMTD of diluent-treated control) (Herpesvirus 1; 32 mg/kg s.c.): 2.5 | No. Dead/No. Infected (Herpesvirus 1; 32 mg/kg s.c. once daily): 0/10 | GMTD (geometric mean time to death) (Herpesvirus 1; 32 mg/kg s.c.): 21.0
